Assay results taken from patent publication US8747810B2, “Compositions and methods for imaging tissues, organs and tumors” (President and Fellows of Harvard College, priority 2009, dated 2014).
Values joined by “and” are separate entries in the source; they are usually repeats but may differ in a detail not shown here. Equal values may be shown once. Read-outs that look alike come from different tables or passages of the source.

Assays:
5HT1A receptor = target: T1, 5HT1A receptor (Rattus norvegicus, UniProt P19327); experiment: 5HT1A receptor competition binding assay, [3H]-8-OH-DPAT, rat hippocampus
T1 construct: hippocampal homogenates that were prepared from Sprague Dawley rat hippocampus; from tissue; host or cells: rat (Sprague-Dawley) hippocampus membranes
T1 sequence (P19327 1-422): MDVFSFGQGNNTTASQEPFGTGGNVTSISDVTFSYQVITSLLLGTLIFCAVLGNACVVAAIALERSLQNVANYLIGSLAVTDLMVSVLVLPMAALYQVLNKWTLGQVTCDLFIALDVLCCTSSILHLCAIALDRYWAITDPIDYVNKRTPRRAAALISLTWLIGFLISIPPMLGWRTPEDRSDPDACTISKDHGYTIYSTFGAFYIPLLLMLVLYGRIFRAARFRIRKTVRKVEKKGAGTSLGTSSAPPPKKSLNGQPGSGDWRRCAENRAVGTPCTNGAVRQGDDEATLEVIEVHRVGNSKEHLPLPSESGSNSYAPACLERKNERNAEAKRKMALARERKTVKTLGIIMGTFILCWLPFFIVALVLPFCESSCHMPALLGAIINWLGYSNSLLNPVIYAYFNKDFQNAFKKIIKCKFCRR
Description: The in vitro 5HT1A binding affinities of rhenium coordinated complexes were determined in a competition assay using rat hippocampus and high-affinity 5HT1A-ligand [^3H]-8-OH-DPAT (135 Ci/mmol, NEN Life Science Inc., Cambridge, Mass.). See, Brain Res. 1995, 673, 217-225.
Male Sprague-Dawley rats (weighing 150-170 g) were sacrificed using anesthesia agent isoflurane. The brains were rapidly removed, and hippocampus, frontal cortex, hypothalamus, and striatum were hand-dissected on ice and stored at −70° C. Tissue was thawed at room temperature and homogenized using a Brinkmann Polytron tissue disrupter in 50 volumes (wt/vol) of ice-cold 50 mM Tris-HCl buffer (pH 7.4). The suspension was centrifuged twice at 27,000 g for 20 min at 4° C. The membrane pellets were resuspended in 50 volumes of (wt/vol) Tris-HCl buffer and incubated at 37° C. for 20 min in a water bath, before a final centrifugation step (27,000 g; 20 min; 4° C.). The final tissue pellets were stored at −70° C. until assayed.
Twelve concentrations of the nonradioactive rhenium complexes ranging from 1×10^−11 to 1×10^−4 and protein samples (0.15 mg of membrane protein) were incubated with 1.5 nM [^3H]-8-OH-DPAT in a total volume of 0.25 mL of Tris-HCl (50 mM, pH 7.4, 10 mM MgSO4). Incubations were carried out for 60 min at 25° C. All assays were terminated by dilution with 5 mL of ice-cold Tris-HCl (10 mM), pH 7.4, and solution were filtered through glass-fiber filters (Whatman GF/F; presoaked in 0.5% polyethyleneimine for 30 min at 25° C.). Filters were then washed three times with 5 mL of ice-cold Tris-HCl (50 mM, pH 7.4), and counted in Hionic-Fluor cocktail (Packard, Groningen, the Netherlands). The corresponding IC50 values were determined with Origin 6.0 software (OriginLab, Northampton, Mass.) and were used for the calculation of the apparent Ki values with the Cheng-Prusoff equation. See, Biochem. Pharmacol. 1973, 22, 3099-3108.
Rhenium complexes were synthesized by the reaction of [ReBr(CO)3(C4H8O)]2 with the final ligands in acetonitrile at room temperature. The in vitro 5-HT1A binding affinities of complexes Re(CO)3-L1-L9 were determined in competitive receptor binding assay using hippocampal homogenates that were prepared from Sprague Dawley rat hippocampus and the high-affinity [^3H]-8-OH-DPAT as the 5HT1A specific ligand.
The in vitro affinity of Re(CO)3-L complexes for the 5-HT1A receptors were assessed by their ability to compete with the high affinity 5HT1A radioligand [^3H]-8-OH-DPAT.

B16F10 melanoma tumors = experiment: In vivo biodistribution of 99mTc complexes in C57B16 mice bearing B16F10 melanoma tumors; details: for mel/blood: melanoma/blood ratio; for mel/liver: melanoma/liver ratio; for mel/lung: melanoma/lung ratio; for mel/spleen: melanoma/spleen ratio
Description: To study the tumor uptake of ^99mTc complexes, ^99mTc-Z2-^99mTc-Z4, in vivo biodistribution experiment at 1, 3, 6 hours post intra-venous injection of the ^99mTc-complex were carried out in C57B16 mice bearing B16F10 melanoma tumors. The biodistribution data including melanoma/nontumor (M/NT) ratios for selected organs are summarized in Table 2 as percentage injected dose per gram (% ID/g) (Table 2). […] This is due to washout from no-tumor organs and increased retention in the tumor.

B16 melanoma nodules = experiment: In vivo biodistribution and tumor uptake of 99mTc complexes in C57B16 mice with B16 melanoma nodules; details: for mel/blood: melanoma/blood ratio; for mel/liver: melanoma/liver ratio; for mel/lung: melanoma/lung ratio; for mel/spleen: melanoma/spleen ratio
Description: The biodistribution data including melanoma/nontumor (M/NT) ratios for selected organs, summarized in Table 1 as percentage injected dose per gram (% ID/g)
To study the tumor uptake of radiolabeled metal complexes, in vivo, biodistribution experiments at 1 h after their administration were carried out in C57B16 male mice with palpable B16 melanoma nodules.

[1] = quantity not named in table head, methods calculate apparent Ki (Cheng-Prusoff), read-out: 5HT1A
[2] = 3 h postinjection, listed as 99mTc-Z2

For `COc1ccccc1C1CCN(CCCCCC[N+]23Cc4ccccc4[O][Re-2]2(=[C]=O)(=[C]=O)(=[C]=O)[n+]2ccccc2C3)CC1` (stereo not shown) [Re-L11], the Ki (5HT1A receptor; [1]) was 120 ± 21 nM.

For `CCCN(CCCCCCN1CC[S][Re]2(=[O])[S]CC[N]2C(=O)C1)C1CCc2c(O)cccc2C1` (stereo not shown) [Re-47 HO], the Ki (5HT1A receptor; [1]) was 26 ± 2.71 nM.

In the case of `COc1ccccc1N1CCN(CCC[N+]23Cc4ccccc4[O][Re-5]2([C]#[O+])([C]#[O+])([C]#[O+])[n+]2ccccc2C3)CC1` (stereo not shown) [Re-L1], the Ki (5HT1A receptor; Example 62, Re(CO)3-L complexes, [3H]-8-OH-DPAT, rat hippocampal homogenates, read-out: Ki, 5-HT1A receptor affinity) is reported as 83.2 ± 2.2 nM.

For `O=C1C[S][99Tc-]23(=[O])[S]CC[N+]2(CCN2CCCCC2)CC[N]13` (stereo not shown) [Tc-Z2], the Eyes (B16F10 melanoma tumors; 1 h postinjection) was 13.57 ± 2.1 % ID/g, the blood (B16F10 melanoma tumors; 1 h postinjection) was 0.41 ± 0.08 % ID/g and the brain (B16F10 melanoma tumors; 1 h postinjection) was 0.13 ± 0.03 % ID/g. For the same molecule, the heart (B16F10 melanoma tumors; 1 h postinjection) was 0.62 ± 0.10 % ID/g, the kidney (B16F10 melanoma tumors; 1 h postinjection) was 3.50 ± 0.95 % ID/g and the liver (B16F10 melanoma tumors; 1 h postinjection) was 10.28 ± 2.9 % ID/g. The lung (B16F10 melanoma tumors; 1 h postinjection) was 1.29 ± 0.36 % ID/g, the “melanoma (tumor uptake)” value (B16F10 melanoma tumors; 1 h postinjection) was 8.52 ± 0.08 % ID/g and the muscle (B16F10 melanoma tumors; 1 h postinjection) was 0.36 ± 0.06 % ID/g. The spleen (B16F10 melanoma tumors; 1 h postinjection) was 0.90 ± 0.22 % ID/g, the “melanoma (tumor uptake)” value (B16F10 melanoma tumors; 1 h postinjection, listed as 99mTc-Z2) was 8.52 % ID/g and the mel/blood (B16F10 melanoma tumors; 1 h postinjection) was 16.49 ± 6.7. The mel/liver (B16F10 melanoma tumors; 1 h postinjection) was 0.64 ± 0.21, the mel/lung (B16F10 melanoma tumors; 1 h postinjection) was 4.93 ± 1.13 and the mel/spleen (B16F10 melanoma tumors; 1 h postinjection) was 7.94 ± 2.79. The Eyes (B16F10 melanoma tumors; 3 h postinjection) was 13.55 ± 2.49 % ID/g, the blood (B16F10 melanoma tumors; 3 h postinjection) was 0.22 ± 0.02 % ID/g and the brain (B16F10 melanoma tumors; 3 h postinjection) was 0.06 ± 0.01 % ID/g. The heart (B16F10 melanoma tumors; 3 h postinjection) was 0.22 ± 0.02 % ID/g, the kidney (B16F10 melanoma tumors; 3 h postinjection) was 1.64 ± 0.15 % ID/g and the liver (B16F10 melanoma tumors; 3 h postinjection) was 3.32 ± 0.67 % ID/g. For the same molecule, the lung (B16F10 melanoma tumors; 3 h postinjection) was 0.49 ± 0.03 % ID/g, the “melanoma (tumor uptake)” value (B16F10 melanoma tumors; 3 h postinjection) was 7.56 ± 1.69 % ID/g and the muscle (B16F10 melanoma tumors; 3 h postinjection) was 0.11 ± 0.01 % ID/g. For the same molecule, the spleen (B16F10 melanoma tumors; 3 h postinjection) was 0.93 ± 0.78 % ID/g, the “melanoma (tumor uptake)” value (B16F10 melanoma tumors; [2]) was 7.56 % ID/g and the mel/blood (B16F10 melanoma tumors; 3 h postinjection) was 34.80 ± 10.2. The mel/liver (B16F10 melanoma tumors; 3 h postinjection) was 2.29 ± 0.30, the mel/liver (B16F10 melanoma tumors; [2]) was 2.29 and the mel/lung (B16F10 melanoma tumors; 3 h postinjection) was 15.48 ± 3.91. It also gave a mel/spleen (B16F10 melanoma tumors; 3 h postinjection) of 17.28 ± 10.2, an Eyes (B16F10 melanoma tumors; 6 h postinjection) of 8.89 ± 1.55 % ID/g and a blood (B16F10 melanoma tumors; 6 h postinjection) of 0.12 ± 0.02 % ID/g. It also gave a brain (B16F10 melanoma tumors; 6 h postinjection) of 0.03 ± 0.01 % ID/g, a heart (B16F10 melanoma tumors; 6 h postinjection) of 0.10 ± 0.02 % ID/g and a kidney (B16F10 melanoma tumors; 6 h postinjection) of 0.84 ± 0.08 % ID/g. For the same molecule, the liver (B16F10 melanoma tumors; 6 h postinjection) was 3.10 ± 0.31 % ID/g, the lung (B16F10 melanoma tumors; 6 h postinjection) was 0.31 ± 0.03 % ID/g and the “melanoma (tumor uptake)” value (B16F10 melanoma tumors; 6 h postinjection) was 5.39 ± 0.36 % ID/g. The muscle (B16F10 melanoma tumors; 6 h postinjection) was 0.04 ± 0.01 % ID/g, the spleen (B16F10 melanoma tumors; 6 h postinjection) was 1.19 ± 0.6 % ID/g and the “melanoma (tumor uptake)” value (B16F10 melanoma tumors; 6 h postinjection, listed as 99mTc-Z2) was 3.71 % ID/g. For the same molecule, the mel/blood (B16F10 melanoma tumors; 6 h postinjection) was 43.14 ± 4.9, the mel/liver (B16F10 melanoma tumors; 6 h postinjection) was 1.71 ± 0.13 and the mel/lung (B16F10 melanoma tumors; 6 h postinjection) was 16.9 ± 1.41. The mel/spleen (B16F10 melanoma tumors; 6 h postinjection) was 5.10 ± 2.59 and the “tumor retention (in words)” value (B16F10 melanoma tumors; over time) was “significant tumor retention”.

Work on `CCCN(CCCCCCN1CC[S][Re]2(=[O])[S]CC[N]2C(=O)C1)C1CCc2cccc(O)c2C1` (stereo not shown) [Re-45-HO] yielded a Ki (5HT1A receptor; [1]) of 0.42 ± 0.08 nM.

For `CCN(CC)CC[N+]12CC[S][99Tc-]13(=[O])[S]CC(=O)[N]3CC2` (stereo not shown) [^99mTc-27, Iso-[^99mTcOAADT]-(CH2)2-NEt2)], the Eyes (B16 melanoma nodules; 1 h postinjection) was 15.42 ± 2.07 % ID/g, the blood (B16 melanoma nodules; 1 h postinjection) was 1.05 ± 0.19 % ID/g and the brain (B16 melanoma nodules; 1 h postinjection) was 0.24 ± 0.04 % ID/g. The heart (B16 melanoma nodules; 1 h postinjection) was 1.34 ± 0.18 % ID/g, the kidney (B16 melanoma nodules; 1 h postinjection) was 5.33 ± 1.10 % ID/g and the liver (B16 melanoma nodules; 1 h postinjection) was 12.62 ± 1.80 % ID/g. The lung (B16 melanoma nodules; 1 h postinjection) was 6.75 ± 0.57 % ID/g, the “melanoma (tumor uptake)” value (B16 melanoma nodules; 1 h postinjection) was 9.61 % ID/g and 9.61 ± 1.02 % ID/g and the muscle (B16 melanoma nodules; 1 h postinjection) was 0.94 ± 0.14 % ID/g. The spleen (B16 melanoma nodules; 1 h postinjection) was 3.00 ± 1.45 % ID/g, the “melanoma (tumor uptake)” value (B16 melanoma nodules; 1 h postinjection, listed as Iso-[^99mTcOAADT]-(CH2)2-NEt2)) was 9.61 % ID/g and the mel/blood (B16 melanoma nodules; 1 h postinjection) was 14.71 and 14.71 ± 2.40. For the same molecule, the mel/liver (B16 melanoma nodules; 1 h postinjection) was 0.75 and 0.75 ± 0.11, the mel/lung (B16 melanoma nodules; 1 h postinjection) was 1.43 and 1.43 ± 0.15 and the mel/spleen (B16 melanoma nodules; 1 h postinjection) was 3.65 and 3.65 ± 1.19. For the same molecule, the in vivo tumor uptake (B16 melanoma nodules; 3 h after administration) was 8.19 %ID/g, the in vivo tumor uptake (B16 melanoma nodules; 6 h after administration) was 7.37 %ID/g and the Eyes (B16 melanoma nodules; 6 h postinjection) was 11.09 ± 0.84 % ID/g. For the same molecule, the blood (B16 melanoma nodules; 6 h postinjection) was 0.25 ± 0.02 % ID/g, the brain (B16 melanoma nodules; 6 h postinjection) was 0.05 ± 0.01 % ID/g and the heart (B16 melanoma nodules; 6 h postinjection) was 0.18 ± 0.02 % ID/g. For the same molecule, the kidney (B16 melanoma nodules; 6 h postinjection) was 1.11 ± 0.13 % ID/g, the liver (B16 melanoma nodules; 6 h postinjection) was 3.69 ± 0.48 % ID/g and the lung (B16 melanoma nodules; 6 h postinjection) was 1.39 ± 0.41 % ID/g. The “melanoma (tumor uptake)” value (B16 melanoma nodules; 6 h postinjection) was 7.05 % ID/g and 7.05 ± 1.23 % ID/g, the muscle (B16 melanoma nodules; 6 h postinjection) was 0.07 ± 0.01 % ID/g and the spleen (B16 melanoma nodules; 6 h postinjection) was 0.78 ± 0.85 % ID/g. For the same molecule, the mel/blood (B16 melanoma nodules; 6 h postinjection) was 47.25 and 47.25 ± 7.32, the mel/liver (B16 melanoma nodules; 6 h postinjection) was 2.00 and 2.00 ± 0.23 and the mel/lung (B16 melanoma nodules; 6 h postinjection) was 5.87 and 5.87 ± 1.79. The mel/spleen (B16 melanoma nodules; 6 h postinjection) was 13.99 and 13.99 ± 5.17.
